Reference: ChEMBL document CHEMBL1201862, “PubChem BioAssay data set” (2004)
Calls of active or inactive are those of the source.

Key:
HEK293 [1] = test: NOD1 signaling inhibitors, primary screen, cell-based, luminescence, uHTS (AID 1578); type: functional; conditions: Homo sapiens
HEK293 [2] = test: cells; type: functional, cell-based; conditions: Homo sapiens
HEK293 [3] = test: cells; type: functional, cell-based; conditions: Homo sapiens; remark: listed apart in the source
[4] = molecular target: Nucleotide-binding oligomerization domain-containing protein 2 (Homo sapiens, UniProt Q9HC29); test: NOD2 signaling inhibitors, cell-based, luminescence, uHTS, HEK293 (AID 1566); type: functional
HEK293 [5] = test: NOD2 signaling inhibitors in MDP-stimulated cells, cell-based, uHTS, luminescence (AID 2001); type: functional; conditions: Homo sapiens
HEK293 [6] = test: cells; type: functional, cell-based; conditions: Homo sapiens; remark: listed apart in the source
[7] = HEp-2 cell cytotoxicity, dose response, cytotoxicity control for RSV inhibitor project, HTS (AID 2410); type: functional; conditions: human respiratory syncytial virus
[8] = inhibitors of intracellular T. cruzi replication, confirmation, NIH3T3 host cells, beta-gal luminescence (AID 2044); type: functional, cell-based;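 also: intracellular parasites grown in NIH/3T3 mouse fibroblasts as host cells; luminescent beta-galactosidase reporter signal from transgenic T. cruzi replicating inside host cells; inhibitors lower the luminescence signal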
[9] = cytotoxicity toward NIH3T3 fibroblasts, dose response, counter-screen, cell-based, ATP luminescence, mouse fibroblasts (AID 2010); type: functional;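 also: cells exposed to compound for about 90 hours before reading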
[10] = molecular target: T1, Short transient receptor potential channel 4 (Mus musculus, UniProt Q9QUQ5); test: mouse TRPC4 channel inhibitors, dose response, cell-based, HEK293 TRPC4/mu-opioid, Fluo-4 calcium (AID 434942); type: functional;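 also: potency of inhibitors blocking the TRPC4 calcium response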
T1 sequence (Q9QUQ5 whole entry): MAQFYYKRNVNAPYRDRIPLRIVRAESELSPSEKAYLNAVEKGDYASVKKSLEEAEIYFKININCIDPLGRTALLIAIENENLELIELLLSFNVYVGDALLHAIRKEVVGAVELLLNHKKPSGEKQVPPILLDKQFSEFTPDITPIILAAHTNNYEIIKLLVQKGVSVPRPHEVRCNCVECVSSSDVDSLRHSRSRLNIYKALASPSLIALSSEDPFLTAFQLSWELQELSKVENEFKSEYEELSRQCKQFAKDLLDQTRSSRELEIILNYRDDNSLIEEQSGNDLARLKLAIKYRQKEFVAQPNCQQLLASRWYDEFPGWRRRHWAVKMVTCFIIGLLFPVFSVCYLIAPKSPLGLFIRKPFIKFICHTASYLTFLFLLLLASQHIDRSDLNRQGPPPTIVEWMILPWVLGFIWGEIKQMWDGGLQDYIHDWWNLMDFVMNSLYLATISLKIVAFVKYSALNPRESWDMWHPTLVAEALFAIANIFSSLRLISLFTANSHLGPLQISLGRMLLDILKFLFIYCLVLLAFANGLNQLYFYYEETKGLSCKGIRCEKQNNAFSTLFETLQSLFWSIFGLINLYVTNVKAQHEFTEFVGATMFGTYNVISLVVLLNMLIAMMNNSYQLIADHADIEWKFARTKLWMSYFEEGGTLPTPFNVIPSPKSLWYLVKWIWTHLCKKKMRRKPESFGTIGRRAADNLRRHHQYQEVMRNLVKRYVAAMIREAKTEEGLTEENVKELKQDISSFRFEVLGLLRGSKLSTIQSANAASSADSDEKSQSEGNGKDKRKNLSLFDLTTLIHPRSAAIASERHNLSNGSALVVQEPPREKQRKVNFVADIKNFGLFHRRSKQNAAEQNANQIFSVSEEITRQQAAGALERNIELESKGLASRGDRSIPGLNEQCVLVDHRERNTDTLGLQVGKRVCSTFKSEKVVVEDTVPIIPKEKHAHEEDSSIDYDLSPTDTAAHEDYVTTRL

[11] = molecular target: DNA dC->dU-editing enzyme APOBEC-3A (Homo sapiens, UniProt P31941); test: Dose Response confirmation of small molecule APOBEC3A DNA Deaminase Inhibitors via a fluorescence-based single-stranded DNA deaminase assay. [Related pubchem assays (depositor defined):AID493011, AID493024]; type: functional
[12] = molecular target: DNA dC->dU-editing enzyme APOBEC-3G (Homo sapiens, UniProt Q9HC16); type: functional;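 also: Dose-response counterscreen measuring inhibition of APOBEC3G DNA deaminase activity, run while confirming APOBEC3A inhibitors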
HEK293 [13] = test: inhibitors of LMP1-driven NF-kB reporter, dose response, cell-based, HEK293, luciferase, cherry-pick (AID 588343); type: functional; conditions: Homo sapiens
Aminopeptidase N = molecular target: T2, Aminopeptidase N (Plasmodium falciparum FcB1/Columbia, UniProt O96935); test: P. falciparum M1AAP inhibitors, biochemical, fluorogenic H-Leu-NHMec substrate, 1536-well (AID 1445); parameters: species or system Plasmodium falciparum 3D7, 3D7
T2 sequence (O96935 whole entry): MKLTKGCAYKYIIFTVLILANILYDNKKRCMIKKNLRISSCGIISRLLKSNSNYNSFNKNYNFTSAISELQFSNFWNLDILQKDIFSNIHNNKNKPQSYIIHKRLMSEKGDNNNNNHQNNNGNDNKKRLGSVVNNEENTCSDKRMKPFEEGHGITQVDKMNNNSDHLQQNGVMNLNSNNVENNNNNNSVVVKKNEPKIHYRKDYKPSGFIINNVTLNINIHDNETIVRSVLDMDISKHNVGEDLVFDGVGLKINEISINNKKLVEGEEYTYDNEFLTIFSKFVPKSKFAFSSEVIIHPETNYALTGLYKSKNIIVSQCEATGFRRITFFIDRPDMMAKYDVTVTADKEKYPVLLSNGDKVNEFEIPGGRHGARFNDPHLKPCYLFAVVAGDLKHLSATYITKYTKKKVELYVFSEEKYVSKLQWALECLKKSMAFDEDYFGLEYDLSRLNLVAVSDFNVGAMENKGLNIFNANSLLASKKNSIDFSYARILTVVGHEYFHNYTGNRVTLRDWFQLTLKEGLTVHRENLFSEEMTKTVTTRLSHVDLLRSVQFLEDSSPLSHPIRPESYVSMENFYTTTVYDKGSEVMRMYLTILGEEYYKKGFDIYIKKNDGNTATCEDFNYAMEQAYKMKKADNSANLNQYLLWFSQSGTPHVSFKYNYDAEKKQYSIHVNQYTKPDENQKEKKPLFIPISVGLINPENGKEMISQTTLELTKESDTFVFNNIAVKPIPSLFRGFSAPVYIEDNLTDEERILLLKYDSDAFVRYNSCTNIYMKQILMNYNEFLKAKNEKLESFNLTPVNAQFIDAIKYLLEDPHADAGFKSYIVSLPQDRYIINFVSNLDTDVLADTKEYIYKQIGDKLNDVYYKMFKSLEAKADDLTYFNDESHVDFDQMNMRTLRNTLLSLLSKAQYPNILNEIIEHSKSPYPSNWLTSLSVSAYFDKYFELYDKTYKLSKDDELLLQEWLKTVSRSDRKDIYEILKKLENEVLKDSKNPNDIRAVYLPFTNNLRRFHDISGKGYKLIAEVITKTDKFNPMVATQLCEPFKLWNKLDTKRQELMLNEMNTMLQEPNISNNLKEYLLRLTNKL

[14] = growth suppression of PTEN-null colon cells, dose response, cell-based, HCT116 PTEN knockout (AID 1047); type: functional;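 also: HCT116 colon tumor cells with PTEN knocked out; cells exposed to compound for 60 hours before readout; potency for loss of cell viability measured by luminescence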
[15] = growth suppression of beta-catenin-knockout colon cells, dose response, cell-based, HCT116, human colon tumor (AID 1045); type: functional;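 also: HCT116 colon tumor cells with beta catenin knocked out; cells exposed to compound for 60 hours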
Vero = test: cells; type: functional; conditions: Chlorocebus sabaeus

Sequence of DNA dC->dU-editing enzyme APOBEC-3G (Q9HC16 whole entry): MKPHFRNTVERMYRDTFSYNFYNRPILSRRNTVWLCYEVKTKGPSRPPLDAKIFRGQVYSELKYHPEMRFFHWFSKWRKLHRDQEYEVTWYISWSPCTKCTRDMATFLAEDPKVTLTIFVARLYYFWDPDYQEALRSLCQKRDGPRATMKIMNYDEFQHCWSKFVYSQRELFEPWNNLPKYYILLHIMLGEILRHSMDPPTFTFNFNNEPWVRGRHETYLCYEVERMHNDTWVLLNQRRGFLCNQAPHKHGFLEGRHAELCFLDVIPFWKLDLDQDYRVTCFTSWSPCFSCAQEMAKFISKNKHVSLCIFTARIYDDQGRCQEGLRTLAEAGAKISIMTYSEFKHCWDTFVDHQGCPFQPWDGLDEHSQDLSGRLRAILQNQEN
Sequence of DNA dC->dU-editing enzyme APOBEC-3A (P31941 whole entry): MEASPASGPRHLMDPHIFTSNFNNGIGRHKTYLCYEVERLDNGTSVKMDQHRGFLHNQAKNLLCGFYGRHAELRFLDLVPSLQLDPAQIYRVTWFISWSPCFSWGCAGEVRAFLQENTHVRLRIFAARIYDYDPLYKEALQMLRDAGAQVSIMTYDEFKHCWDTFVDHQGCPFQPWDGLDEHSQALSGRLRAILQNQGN
Sequence of Nucleotide-binding oligomerization domain-containing protein 2 (Q9HC29 whole entry, the tested form may be a part): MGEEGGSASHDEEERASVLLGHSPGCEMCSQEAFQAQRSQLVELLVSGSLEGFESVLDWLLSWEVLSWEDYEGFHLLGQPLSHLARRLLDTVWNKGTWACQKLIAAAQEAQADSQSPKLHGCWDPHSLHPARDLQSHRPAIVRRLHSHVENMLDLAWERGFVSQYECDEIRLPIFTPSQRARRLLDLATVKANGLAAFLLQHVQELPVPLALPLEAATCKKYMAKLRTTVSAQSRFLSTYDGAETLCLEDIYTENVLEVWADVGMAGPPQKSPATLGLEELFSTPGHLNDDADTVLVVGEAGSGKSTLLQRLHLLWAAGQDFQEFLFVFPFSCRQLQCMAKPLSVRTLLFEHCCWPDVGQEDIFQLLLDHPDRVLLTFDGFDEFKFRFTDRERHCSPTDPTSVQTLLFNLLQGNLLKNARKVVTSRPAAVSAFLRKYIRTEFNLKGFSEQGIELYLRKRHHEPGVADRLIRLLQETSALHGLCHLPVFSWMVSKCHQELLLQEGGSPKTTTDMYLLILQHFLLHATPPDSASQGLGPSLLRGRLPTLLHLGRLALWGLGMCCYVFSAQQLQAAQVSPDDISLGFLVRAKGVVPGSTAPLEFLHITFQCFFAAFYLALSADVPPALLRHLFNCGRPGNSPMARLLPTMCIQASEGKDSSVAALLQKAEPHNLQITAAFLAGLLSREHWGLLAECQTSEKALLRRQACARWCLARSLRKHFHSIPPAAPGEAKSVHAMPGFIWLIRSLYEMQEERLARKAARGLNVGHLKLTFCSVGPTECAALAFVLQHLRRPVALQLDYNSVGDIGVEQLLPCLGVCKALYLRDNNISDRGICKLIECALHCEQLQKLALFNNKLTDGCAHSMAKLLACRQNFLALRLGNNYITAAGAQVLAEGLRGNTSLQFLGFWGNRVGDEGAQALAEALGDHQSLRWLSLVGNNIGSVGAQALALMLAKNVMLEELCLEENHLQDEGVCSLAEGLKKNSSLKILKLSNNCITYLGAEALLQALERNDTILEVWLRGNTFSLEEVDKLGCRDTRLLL

## CCOC(=O)C1CCN(S(=O)(=O)c2ccc3c(c2)N(C(C)=O)CC(C)S3)CC1 (stereo unspecified)
HEK293 [1]
  EC50: 7.03 µM (active)
HEK293 [2]
  IC50: 19.7 µM (active)
HEK293 [3]
  IC50: > 20 µM (inactive)
[4]
  EC50: > 20 µM (inactive)
HEK293 [5]
  IC50: > 20 µM (inactive)
HEK293 [6]
  IC50: > 20 µM (inactive)

## Cc1cccc(N2CCN(C(=O)CCCCCn3c(=S)[nH]c4ccc(N5CCOCC5)cc4c3=O)CC2)c1C
[7]
  CC50: 26.4 µM (active)
HEK293 [1]
  EC50: 15.1 µM (active)
HEK293 [2]
  IC50: > 20 µM (inactive)
HEK293 [3]
  IC50: > 20 µM (inactive)
[4]
  EC50: 11.9 µM (active)
HEK293 [5]
  IC50: 11.9 µM (inactive)
[8]
  EC50: 1.56 µM (active)
HEK293 [6]
  IC50: > 20 µM (inactive)
[9]
  EC50: > 60 µM (not active)

## CSC1=NC2=C(CCCC2)C2(CCCCC2)N1
[10]
  EC50: 5.96 µM (active)

## CCN1CCN(c2ccc(S(=O)(=O)N3CCCCC3)cc2NC(=O)Cc2ccccc2)CC1
[11]
  IC50: 3.97 µM (active)
[12]
  IC50: 5.57 µM (active)

## Cc1ccc(Nc2c([N+](=O)[O-])nn(-c3ccc4c(c3)OCCO4)[n+]2[O-])cc1F
HEK293 [1]
  EC50: > 20 µM (inactive)
HEK293 [2]
  IC50: 0.842 µM (active)
HEK293 [3]
  IC50: > 20 µM (inactive)
[4]
  EC50: > 20 µM (inactive)
HEK293 [5]
  IC50: > 20 µM (inactive)
HEK293 [6]
  IC50: > 20 µM (inactive)
HEK293 [13]
  AC50: 0.538 µM (active)

## Cc1ccc(-c2n[nH]c3c2C(c2ccccc2)N(c2ccc(C(=O)O)cc2)C3=O)cc1 (stereo unspecified)
Aminopeptidase N
  IC50: 30.4 µM (active)

## CCn1c2ccccc2c2cc(/C=C(/C#N)C(N)=S)ccc21
HEK293 [13]
  AC50: 1.21 µM (active)

## COC(=O)C1=C(C)N(Cc2ccccc2)C(NCCCCO)=N[C@H]1c1ccccc1
[11]
  IC50: 2.27 µM (active)
[12]
  IC50: 5.13 µM (active)

## Cc1ncsc1CCOC(=O)c1cccc([N+](=O)[O-])c1
[10]
  EC50: 1.68 µM (active)

## O=[N+]([O-])CC(c1ccc(Br)cc1)c1c(O)n[nH]c1-c1ccccc1O (stereo unspecified)
[7]
  CC50: 10.3 µM (active)
[14]
  EC50: 9 µM (active)
[15]
  EC50: 6.72 µM (active)
Vero
  CC50: 14.2 µM (active)

## Cc1cc(/C=C2\SC(=O)N(C)C2=O)c(C)n1-c1ccc(S(N)(=O)=O)cc1
[11]
  IC50: 3.12 µM (active)
[12]
  IC50: 4.58 µM (active)
